This note sets out measurements from PubChem BioAssay (NCI).

Where “and” joins values, the source holds several entries; their conditions need not be identical. Equal values may be shown once.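 Growth conditions: 96-well plates. Treatment: test compound, 48 hours, 5 concentrations. Analysis: linear interpolation between bracketing concentrations; unreached endpoints set to highest concentration. GI50 is the concentration that inhibits growth by half. At the TGI there is no net growth.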

Some test systems named below: CCRF-CEM leukemia; HCT-116 colon; HCT-15 colon; M14 melanoma; MALME-3M melanoma; NCI-H460 lung; RXF 393 renal; SK-MEL-28 melanoma; SNB-75 CNS; UACC-62 melanoma.
Common to all, as to assay: NCI-60 cell line screen, 48 h

As to `C=C1C(=O)O[C@H]2[C@H]1CC/C(CNC(=O)/C=C/c1ccc(Br)cc1)=C\CC[C@@]1(C)O[C@@H]21`, the GI50 in the assay with CCRF-CEM leukemia was 0.354 µM; in the assay with HCT-116 colon, 0.667 µM; with HCT-15 colon, 0.519 µM; with M14 melanoma, 1.11 µM; in the assay on MALME-3M melanoma it was 1.33 µM; in the assay with NCI-H460 lung, 1.63 µM. The GI50 with RXF 393 renal was 0.26 µM; with SK-MEL-28 melanoma, 1.34 µM; in the assay with SNB-75 CNS, 1.23 µM; in the assay with UACC-62 melanoma it was 1.34 µM. For the same compound, the TGI in the assay with CCRF-CEM leukemia is 4.59 µM; in the assay on HCT-116 colon, 1.95 µM; in the assay with HCT-15 colon it was 1.88 µM; with M14 melanoma, 2.69 µM; in the assay on MALME-3M melanoma, 2.78 µM; in the assay on NCI-H460 lung, 3.3 µM. Besides, the TGI in the assay on RXF 393 renal was 1.4 µM; with SK-MEL-28 melanoma it was 2.7 µM; with SNB-75 CNS, 2.49 µM; with UACC-62 melanoma, 2.78 µM.

Consider `CN(C)CCCOc1ccccc1NC1=C(Cl)C(=O)C(Nc2ccccc2OCCCN(C)C)=C(Cl)C1=O`, for which the GI50 is 0.262 µM with CCRF-CEM leukemia; 0.183 µM in the assay on HCT-116 colon; 0.749 µM in the assay on HCT-15 colon; 1.6 µM in the assay with M14 melanoma; 0.923 µM in the assay with MALME-3M melanoma; 1.32 µM in the assay on NCI-H460 lung. For the same compound, the GI50 in the assay with RXF 393 renal is 1.17 µM; with SK-MEL-28 melanoma it was 1.72 µM; in the assay on SNB-75 CNS, 1.62 µM; in the assay on UACC-62 melanoma, 1.58 µM. In addition, the TGI turned out to be 1.3 µM with CCRF-CEM leukemia; 0.356 µM with HCT-116 colon; 2.18 µM in the assay on HCT-15 colon; 3.16 µM in the assay with M14 melanoma; 2.43 µM in the assay on MALME-3M melanoma; 2.85 µM in the assay on NCI-H460 lung. Moreover, the TGI was 2.43 µM with RXF 393 renal, 3.13 µM with SK-MEL-28 melanoma, 3.02 µM in the assay with SNB-75 CNS and 3.05 µM with UACC-62 melanoma.

With `Cc1nc2sccn2c1/C=C1/C(=O)Nc2ccccc21`, the GI50 is 5.01 µM with CCRF-CEM leukemia; 3.4 µM in the assay with HCT-116 colon; 2.46 µM in the assay on HCT-15 colon; 3.71 µM in the assay on M14 melanoma; 5.37 µM in the assay with MALME-3M melanoma; 5.05 µM in the assay on NCI-H460 lung. Besides, the GI50 is 19.7 µM in the assay on RXF 393 renal, more than 28.5 µM in the assay on SK-MEL-28 melanoma, 17.7 µM in the assay on SNB-75 CNS and 2.52 µM with UACC-62 melanoma. The TGI was more than 100 µM with CCRF-CEM leukemia; 20.2 µM with HCT-116 colon; more than 100 µM in the assay on HCT-15 colon; more than 100 µM with M14 melanoma; more than 100 µM in the assay on MALME-3M melanoma; more than 100 µM in the assay on NCI-H460 lung. Moreover, the TGI in the assay on RXF 393 renal is more than 80.9 µM; in the assay on SK-MEL-28 melanoma, more than 100 µM; with SNB-75 CNS, more than 74.2 µM; in the assay on UACC-62 melanoma, 21.2 µM.

As to `Cc1ccc(NCCCN2CCN(CCCNc3ccc(C)c4sc5ccccc5c(=O)c34)CC2)c2c(=O)c3ccccc3sc12`, the TGI with CCRF-CEM leukemia, with HCT-116 colon, in the assay with HCT-15 colon, in the assay with M14 melanoma, with MALME-3M melanoma and in the assay on NCI-H460 lung was more than 100 µM in each case. Besides, the TGI in the assay with RXF 393 renal was more than 100 µM; in the assay with SK-MEL-28 melanoma it was more than 100 µM; with SNB-75 CNS, 57.1 µM; in the assay on UACC-62 melanoma, more than 100 µM.

With `Nc1ccn(C2OC(CO)C(O)C2F)c(=O)n1` (centres undefined), the GI50 is 1.67 µM with CCRF-CEM leukemia; more than 5000 µM in the assay with HCT-116 colon; more than 5000 µM in the assay with HCT-15 colon; more than 5000 µM in the assay on M14 melanoma; more than 5000 µM with MALME-3M melanoma; 810 µM and 773 µM with NCI-H460 lung. Further, the GI50 with RXF 393 renal, in the assay on SK-MEL-28 melanoma, with SNB-75 CNS and in the assay with UACC-62 melanoma was more than 5000 µM throughout. In addition, the TGI in the assay on HCT-116 colon, in the assay with HCT-15 colon, in the assay on M14 melanoma, in the assay with MALME-3M melanoma, in the assay on NCI-H460 lung and in the assay on RXF 393 renal was more than 5000 µM throughout. In addition, the TGI in the assay on SK-MEL-28 melanoma, in the assay with SNB-75 CNS and with UACC-62 melanoma was more than 5000 µM each time.

For the compound `COc1cccc(C2CC(c3cc(OC)c(OC)c(OC)c3)=NN2)c1` (centres undefined), the GI50 is 2.91 µM with CCRF-CEM leukemia; 5.31 µM with HCT-116 colon; 10.1 µM with HCT-15 colon; 48.8 µM in the assay on M14 melanoma; 23.4 µM with MALME-3M melanoma; 13.3 µM in the assay with NCI-H460 lung. For the same compound, the GI50 in the assay with RXF 393 renal was 8.75 µM; in the assay on SK-MEL-28 melanoma it was 17.8 µM; in the assay on SNB-75 CNS, 15.6 µM; with UACC-62 melanoma, 20.6 µM. Besides, the TGI in the assay with CCRF-CEM leukemia was 21.7 µM; in the assay with HCT-116 colon, 19 µM; in the assay with HCT-15 colon it was 23.8 µM; in the assay on M14 melanoma, more than 100 µM; in the assay with MALME-3M melanoma it was more than 100 µM; in the assay with NCI-H460 lung, 35.4 µM. In addition, the TGI is 34 µM with RXF 393 renal, more than 100 µM in the assay with SK-MEL-28 melanoma, more than 100 µM in the assay on SNB-75 CNS and more than 100 µM in the assay with UACC-62 melanoma.

In the case of `C(=Nc1ccccc1)C1CCCC[N-]1.C(=Nc1ccccc1)C1CCCC[N-]1.[Cu+2].[O-][Cl+3]([O-])([O-])O` (centres undefined), the GI50 in the assay on CCRF-CEM leukemia was 6.3 µM; in the assay with HCT-116 colon, 7.3 µM; in the assay with HCT-15 colon, 0.529 µM; in the assay with M14 melanoma it was 7.4 µM; in the assay with MALME-3M melanoma, 14 µM; with NCI-H460 lung it was 11.2 µM. Moreover, the GI50 is 38.2 µM in the assay on RXF 393 renal, 20.5 µM in the assay with SK-MEL-28 melanoma, 23.6 µM with SNB-75 CNS and 5 µM with UACC-62 melanoma. The TGI is 36.6 µM in the assay on CCRF-CEM leukemia; 28.8 µM in the assay with HCT-116 colon; 9.76 µM with HCT-15 colon; 27.9 µM with M14 melanoma; 33.9 µM in the assay on MALME-3M melanoma; more than 58.2 µM in the assay with NCI-H460 lung. Besides, the TGI in the assay on RXF 393 renal was more than 100 µM; in the assay with SK-MEL-28 melanoma it was 48.5 µM; in the assay on SNB-75 CNS it was 59 µM; in the assay on UACC-62 melanoma it was 22.8 µM.
